Experimental data published in ChEMBL document CHEMBL3885881, “DrugMatrix”.

Species on record: Rattus norvegicus
Experiment: DrugMatrix - Regimen: Daily Repeat
Format: toxicity, organism-based, Sprague-Dawley
Design: regimen Daily Repeat, gender Male, age 6-8 weeks
Details: in vivo, sc, route subcutaneous, […]; for ABSOLUTE BASOPHIL / ABSOLUTE EOSINOPHIL / ABSOLUTE LYMPHOCYTE / ABSOLUTE MONOCYTE / ABSOLUTE SEGMENTED NEUTROPHIL / BASOPHIL / EOSINOPHIL / ERYTHROCYTE COUNT / HEMATOCRIT / LEUKOCYTE COUNT / MEAN CORPUSCULAR HEMOGLOBIN / MEAN CORPUSCULAR HEMOGLOBIN CONCENTRATION / MEAN CORPUSCULAR VOLUME / MONOCYTE / NEUTROPHIL / NUCLEATED RED BLOOD CELLS / PLATELET COUNT: tissue Blood; for ALANINE AMINOTRANSFERASE / ALBUMIN / ALKALINE PHOSPHATASE / ASPARTATE AMINOTRANSFERASE / BLOOD UREA NITROGEN / CHLORIDE / CHOLESTEROL / CREATINE PHOSPHOKINASE / CREATININE / GLUCOSE / LACTATE DEHYDROGENASE / LIPASE / PHOSPHORUS / POTASSIUM / TOTAL BILIRUBIN / URIC ACID: tissue Plasma
[1] = 0 mg/kg, 72 h, dose level Control, time 3 day
[2] = 0 mg/kg, 120 h, dose level Control, time 5 day
[3] = 79 mg/kg, 72 h, dose level High, time 3 day
[4] = 79 mg/kg, 120 h, dose level High, time 5 day
[5] = 72 h, dose 1.3 mg/Kg, dose level Low, time 3 day
[6] = 120 h, dose 1.3 mg/Kg, dose level Low, time 5 day

## C[C@H]1C[C@H]2[C@@H]3CCC4=CC(=O)C=C[C@]4(C)[C@@]3(F)[C@@H](O)C[C@]2(C)[C@@]1(O)C(=O)CO [BETAMETHASONE]
[1]
  ABSOLUTE BASOPHIL: 0 CELLS/uL
  ABSOLUTE EOSINOPHIL: 0 CELLS/uL
  ABSOLUTE LYMPHOCYTE: 10887 CELLS/uL
  ABSOLUTE MONOCYTE: 56 CELLS/uL
  ABSOLUTE SEGMENTED NEUTROPHIL: 1057 CELLS/uL
  BASOPHIL: 0%
  EOSINOPHIL: 0%
  ERYTHROCYTE COUNT: 5.31 x10E6/uL
  HEMATOCRIT: 33.78%
  LEUKOCYTE COUNT: 12 x10E3/uL
  MEAN CORPUSCULAR HEMOGLOBIN: 25.25 pg
  MEAN CORPUSCULAR HEMOGLOBIN CONCENTRATION: 39.65 G/DL
  MEAN CORPUSCULAR VOLUME: 63.65 fL
  MONOCYTE: 0.5%
  NEUTROPHIL: 8.33%
  NUCLEATED RED BLOOD CELLS: 0 /100WBC
  PLATELET COUNT: 1142 x10E3/uL
  ALANINE AMINOTRANSFERASE: 57.17 u/L
  ALBUMIN: 4.28 G/DL
  ALKALINE PHOSPHATASE: 425.83 u/L
  ASPARTATE AMINOTRANSFERASE: 93.83 u/L
  BLOOD UREA NITROGEN: 14.17 mg/dL
  CHLORIDE: 100 MEQ/L
  CHOLESTEROL: 70.33 mg/dL
  CREATINE PHOSPHOKINASE: 438.67 u/L
  CREATININE: 0.19 mg/dL
  GLUCOSE: 138.5 mg/dL
  LACTATE DEHYDROGENASE: 190.17 u/L
  LIPASE: 9.83 u/L
  PHOSPHORUS: 11.05 mg/dL
  POTASSIUM: 6.59 MEQ/L
  TOTAL BILIRUBIN: 0.22 mg/dL
  URIC ACID: 1.3 mg/dL
[2]
  ABSOLUTE BASOPHIL: 0 CELLS/uL
  ABSOLUTE EOSINOPHIL: 91.17 CELLS/uL
  ABSOLUTE LYMPHOCYTE: 11847.67 CELLS/uL
  ABSOLUTE MONOCYTE: 172.83 CELLS/uL
  ABSOLUTE SEGMENTED NEUTROPHIL: 1105 CELLS/uL
  BASOPHIL: 0%
  EOSINOPHIL: 0.67%
  ERYTHROCYTE COUNT: 5.35 x10E6/uL
  HEMATOCRIT: 33.65%
  LEUKOCYTE COUNT: 13.22 x10E3/uL
  MEAN CORPUSCULAR HEMOGLOBIN: 25.12 pg
  MEAN CORPUSCULAR HEMOGLOBIN CONCENTRATION: 39.9 G/DL
  MEAN CORPUSCULAR VOLUME: 63 fL
  MONOCYTE: 1.33%
  NEUTROPHIL: 8.17%
  NUCLEATED RED BLOOD CELLS: 0 /100WBC
  PLATELET COUNT: 1347.83 x10E3/uL
  ALANINE AMINOTRANSFERASE: 50 u/L
  ALBUMIN: 4.1 G/DL
  ALKALINE PHOSPHATASE: 329.17 u/L
  ASPARTATE AMINOTRANSFERASE: 77.17 u/L
  BLOOD UREA NITROGEN: 16.83 mg/dL
  CHLORIDE: 99.83 MEQ/L
  CHOLESTEROL: 75.67 mg/dL
  CREATINE PHOSPHOKINASE: 295.83 u/L
  CREATININE: 0.18 mg/dL
  GLUCOSE: 156.33 mg/dL
  LACTATE DEHYDROGENASE: 166.83 u/L
  LIPASE: 9.83 u/L
  PHOSPHORUS: 12.18 mg/dL
  POTASSIUM: 6.69 MEQ/L
  TOTAL BILIRUBIN: 0.22 mg/dL
  URIC ACID: 1.6 mg/dL
[3]
  ABSOLUTE BASOPHIL: 0 CELLS/uL
  ABSOLUTE EOSINOPHIL: 18 CELLS/uL
  ABSOLUTE LYMPHOCYTE: 1334 CELLS/uL
  ABSOLUTE MONOCYTE: 44 CELLS/uL
  ABSOLUTE SEGMENTED NEUTROPHIL: 3004 CELLS/uL
  BASOPHIL: 0%
  EOSINOPHIL: 0.33%
  ERYTHROCYTE COUNT: 5.69 x10E6/uL
  HEMATOCRIT: 36.67%
  LEUKOCYTE COUNT: 4.4 x10E3/uL
  MEAN CORPUSCULAR HEMOGLOBIN: 25.27 pg
  MEAN CORPUSCULAR HEMOGLOBIN CONCENTRATION: 39.2 G/DL
  MEAN CORPUSCULAR VOLUME: 64.47 fL
  MONOCYTE: 1%
  NEUTROPHIL: 69%
  NUCLEATED RED BLOOD CELLS: 0 /100WBC
  PLATELET COUNT: 1406 x10E3/uL
  ALANINE AMINOTRANSFERASE: 146.33 u/L
  ALBUMIN: 5.37 G/DL
  ALKALINE PHOSPHATASE: 302 u/L
  ASPARTATE AMINOTRANSFERASE: 178 u/L
  BLOOD UREA NITROGEN: 25 mg/dL
  CHLORIDE: 96.67 MEQ/L
  CHOLESTEROL: 124.33 mg/dL
  CREATINE PHOSPHOKINASE: 219.33 u/L
  CREATININE: 0.27 mg/dL
  GLUCOSE: 443 mg/dL
  LACTATE DEHYDROGENASE: 492.67 u/L
  LIPASE: 12.67 u/L
  PHOSPHORUS: 11.8 mg/dL
  POTASSIUM: 6.32 MEQ/L
  TOTAL BILIRUBIN: 0.2 mg/dL
  URIC ACID: 1.43 mg/dL
[4]
  ABSOLUTE BASOPHIL: 0 CELLS/uL
  ABSOLUTE EOSINOPHIL: 0 CELLS/uL
  ABSOLUTE LYMPHOCYTE: 513.67 CELLS/uL
  ABSOLUTE MONOCYTE: 201.67 CELLS/uL
  ABSOLUTE SEGMENTED NEUTROPHIL: 19451.33 CELLS/uL
  BASOPHIL: 0%
  EOSINOPHIL: 0%
  ERYTHROCYTE COUNT: 5.57 x10E6/uL
  HEMATOCRIT: 34.53%
  LEUKOCYTE COUNT: 20.17 x10E3/uL
  MEAN CORPUSCULAR HEMOGLOBIN: 23.77 pg
  MEAN CORPUSCULAR HEMOGLOBIN CONCENTRATION: 38.47 G/DL
  MEAN CORPUSCULAR VOLUME: 61.87 fL
  MONOCYTE: 1%
  NEUTROPHIL: 95%
  NUCLEATED RED BLOOD CELLS: 0 /100WBC
  PLATELET COUNT: 893 x10E3/uL
  ALANINE AMINOTRANSFERASE: 251.67 u/L
  ALBUMIN: 4.5 G/DL
  ALKALINE PHOSPHATASE: 329 u/L
  ASPARTATE AMINOTRANSFERASE: 307.33 u/L
  BLOOD UREA NITROGEN: 21.67 mg/dL
  CHLORIDE: 93.67 MEQ/L
  CHOLESTEROL: 105 mg/dL
  CREATINE PHOSPHOKINASE: 200.33 u/L
  CREATININE: 0.3 mg/dL
  GLUCOSE: 505.67 mg/dL
  LACTATE DEHYDROGENASE: 602 u/L
  LIPASE: 11.33 u/L
  PHOSPHORUS: 11.1 mg/dL
  POTASSIUM: 5.39 MEQ/L
  TOTAL BILIRUBIN: 0.23 mg/dL
  URIC ACID: 1 mg/dL
[5]
  ABSOLUTE BASOPHIL: 0 CELLS/uL
  ABSOLUTE EOSINOPHIL: 15.33 CELLS/uL
  ABSOLUTE LYMPHOCYTE: 4290.33 CELLS/uL
  ABSOLUTE MONOCYTE: 15.33 CELLS/uL
  ABSOLUTE SEGMENTED NEUTROPHIL: 845.67 CELLS/uL
  BASOPHIL: 0%
  EOSINOPHIL: 0.33%
  ERYTHROCYTE COUNT: 5.47 x10E6/uL
  HEMATOCRIT: 33.27%
  LEUKOCYTE COUNT: 5.17 x10E3/uL
  MEAN CORPUSCULAR HEMOGLOBIN: 24.57 pg
  MEAN CORPUSCULAR HEMOGLOBIN CONCENTRATION: 40.37 G/DL
  MEAN CORPUSCULAR VOLUME: 60.9 fL
  MONOCYTE: 0.33%
  NEUTROPHIL: 17%
  NUCLEATED RED BLOOD CELLS: 0 /100WBC
  PLATELET COUNT: 1195.33 x10E3/uL
  ALANINE AMINOTRANSFERASE: 49.67 u/L
  ALBUMIN: 5.1 G/DL
  ALKALINE PHOSPHATASE: 401.67 u/L
  ASPARTATE AMINOTRANSFERASE: 97 u/L
  BLOOD UREA NITROGEN: 15 mg/dL
  CHLORIDE: 98.67 MEQ/L
  CHOLESTEROL: 79.33 mg/dL
  CREATINE PHOSPHOKINASE: 415.33 u/L
  CREATININE: 0.19 mg/dL
  GLUCOSE: 120 mg/dL
  LACTATE DEHYDROGENASE: 165.33 u/L
  LIPASE: 11 u/L
  PHOSPHORUS: 11.13 mg/dL
  POTASSIUM: 6.2 MEQ/L
  TOTAL BILIRUBIN: 0.17 mg/dL
  URIC ACID: 0.9 mg/dL
[6]
  ABSOLUTE BASOPHIL: 0 CELLS/uL
  ABSOLUTE EOSINOPHIL: 75.67 CELLS/uL
  ABSOLUTE LYMPHOCYTE: 4789.67 CELLS/uL
  ABSOLUTE MONOCYTE: 25 CELLS/uL
  ABSOLUTE SEGMENTED NEUTROPHIL: 1976.33 CELLS/uL
  BASOPHIL: 0%
  EOSINOPHIL: 1%
  ERYTHROCYTE COUNT: 6.27 x10E6/uL
  HEMATOCRIT: 38.47%
  LEUKOCYTE COUNT: 6.87 x10E3/uL
  MEAN CORPUSCULAR HEMOGLOBIN: 24.07 pg
  MEAN CORPUSCULAR HEMOGLOBIN CONCENTRATION: 39.23 G/DL
  MEAN CORPUSCULAR VOLUME: 61.3 fL
  MONOCYTE: 0.33%
  NEUTROPHIL: 30.33%
  NUCLEATED RED BLOOD CELLS: 0 /100WBC
  PLATELET COUNT: 1459.67 x10E3/uL
  ALANINE AMINOTRANSFERASE: 71 u/L
  ALBUMIN: 5.1 G/DL
  ALKALINE PHOSPHATASE: 397 u/L
  ASPARTATE AMINOTRANSFERASE: 114 u/L
  BLOOD UREA NITROGEN: 17.33 mg/dL
  CHLORIDE: 102.67 MEQ/L
  CHOLESTEROL: 70.33 mg/dL
  CREATINE PHOSPHOKINASE: 195.67 u/L
  CREATININE: 0.16 mg/dL
  GLUCOSE: 164.67 mg/dL
  LACTATE DEHYDROGENASE: 354.67 u/L
  LIPASE: 9.67 u/L
  PHOSPHORUS: 13.03 mg/dL
  POTASSIUM: 7 MEQ/L
  TOTAL BILIRUBIN: 0.2 mg/dL
  URIC ACID: 1.8 mg/dL
